Values after ≈ are worked out from the molar mass of the structure shown. Read-outs that look alike come from different tables or passages of the source.

In assay [1] the test system is Helicobacter pylori. Put plainly: Viability of H. pylori after 1 hour with FFA or MG in Brucella broth (plate count, Example 1, Table 1). Particulars: for Reduction in number of viable H. pylori cells (CFU/mL): 5 mM, 1 hour, 37° C.; for Effect on test strains of H. pylori: up to 5 mM, three strains. Type of assay: cell-based.
The subject of assay [2] is Helicobacter pylori. Put plainly: Viability of H. pylori after 1 hour in prototype nutritional compositions containing FFA or MG (Example 3, Table 6). Type of assay: cell-based, Helicobacter pylori (ATCC 43629). Particulars: for Change in viable cell number: 1 hour; for Inhibition in nutritional compositions: levels as high as 20 mM.
Assay [3] has as its system Helicobacter pylori. Description: Minimal inhibitory concentration (MIC) for H. pylori (Example 5). Particulars: Helicobacter pylori, Table 7; read-out: MIC. Type of assay: cell-based.
The test system of assay [4] is Helicobacter pylori. Type of assay: cell-based, Helicobacter pylori (HP-2, HP-4, HP-5). Particulars: for Frequency of innate resistance compared with MG and FFA: H. pylori strains, Table 7; for Frequency of resistant mutants (number of spontaneous mutants): ~1 × 10^8 CFU.
Setting [5] is: Sustacal (Formulation I), 10 mM.
The mark [6] stands for this setting: Ultracal (Formulation III), 5 mM.
[7] abbreviates: Ultracal (Formulation III), 10 mM.
[8] abbreviates: Ultracal (Formulation III), 20 mM.
[9] abbreviates: Nutrament (Formulation II), 20 mM.
[10] abbreviates: Sustacal (Formulation I), 20 mM.

For the molecule `CCCCCCCC(=O)OCC(O)CO` (stereo not shown) [Monocaprylin, monocaprylin], the “Reduction in number of viable H. pylori cells (CFU/mL)” value with Helicobacter pylori [1] (ATCC #43579) is reported as > 4,000 fold; in the assay on Helicobacter pylori [1] (ATCC #43629) it was > 3,000 fold; in the assay with Helicobacter pylori [1] (ATCC #49503), > 40,000 fold. The “Reductions in cell numbers” value in the assay with Helicobacter pylori [1] (test strains HP-2, HP-4, HP-5, 1 hour incubation) is recorded as not below 1000 fold. For the same molecule, the “Reductions in viability of H. pylori” value in the assay with Helicobacter pylori [2] (10 mM for 1 hour) was not below 1000 fold. The “Change in viable cell number” value is -4.23 LOG CFU/mL with Helicobacter pylori [2] (Nutrament (Formulation II), 5 mM); -4.23 LOG CFU/mL in the assay on Helicobacter pylori [2] (Nutrament (Formulation II), 10 mM); 0.37 LOG CFU/mL in the assay with Helicobacter pylori [2] (Sustacal (Formulation I), 5 mM); -3.44 LOG CFU/mL with Helicobacter pylori [2] (setting [5]); 0.00 LOG CFU/mL with Helicobacter pylori [2] (setting [6]); -3.64 LOG CFU/mL in the assay with Helicobacter pylori [2] (setting [7]). In addition, the “Change in viable cell number” value in the assay with Helicobacter pylori [2] (setting [8]) was -4.46 LOG CFU/mL.

On to `Cc1ncc([N+](=O)[O-])n1CCO` [metronidazole, reference compound], for which, in the assay with Helicobacter pylori [3], the minimal inhibitory concentration (MIC) (usually the smallest concentration in the dilution series that meets the test's criterion for growth inhibition) came to 2 µg/mL (≈ 11.7 µM). The “Frequency of innate resistance compared with MG and FFA” value with Helicobacter pylori [4] was “consistently higher”. Besides, the “Frequency of resistant mutants (number of spontaneous mutants)” value (“Frequency of resistant mutants” for short) is on record as 791 with Helicobacter pylori [4] (strain 43629, 2 × MIC); less than 1 with Helicobacter pylori [4] (strain 43629, 5 × MIC); less than 1 in the assay on Helicobacter pylori [4] (strain 43629, 10 × MIC); more than 1000 in the assay with Helicobacter pylori [4] (strain 43679 (so in the source), 2 × MIC); 862 with Helicobacter pylori [4] (strain 43679 (so in the source), 5 × MIC); 518 in the assay with Helicobacter pylori [4] (strain 43679 (so in the source), 10 × MIC). Moreover, the “Frequency of resistant mutants” value is more than 1000 with Helicobacter pylori [4] (strain 49503, 2 × MIC); 48 with Helicobacter pylori [4] (strain 49503, 5 × MIC); less than 1 in the assay on Helicobacter pylori [4] (strain 49503, 10 × MIC).

With `CN(C)C1C(=O)C(C(N)=O)=C(O)C2(O)C(=O)C3=C(O)c4c(O)cccc4C(C)(O)C3CC12` (stereo not shown) [tetracycline, reference compound], the MIC with Helicobacter pylori [3] came to 0.1 µg/mL (≈ 0.225 µM). For the same molecule, in the assay with Helicobacter pylori [4], the “Frequency of innate resistance compared with MG and FFA” value is on record as “consistently higher”. For the same molecule, the “Frequency of resistant mutants” value in the assay on Helicobacter pylori [4] (strain 43579, 2 × MIC) was “TNTC”; in the assay on Helicobacter pylori [4] (strain 43579, 5 × MIC) it was “TNTC”; in the assay on Helicobacter pylori [4] (strain 43579, 10 × MIC), less than 1; in the assay on Helicobacter pylori [4] (strain 43629, 2 × MIC), more than 1000; with Helicobacter pylori [4] (strain 43629, 5 × MIC) it was 242; in the assay with Helicobacter pylori [4] (strain 43629, 10 × MIC) it was less than 1. The “Frequency of resistant mutants” value was 148 in the assay on Helicobacter pylori [4] (strain 49503, 2 × MIC); less than 1 with Helicobacter pylori [4] (strain 49503, 5 × MIC); less than 1 with Helicobacter pylori [4] (strain 49503, 10 × MIC).

Take `CCCCCCCC(=O)O` [Caprylic Acid, caprylic acid, reference compound]: the “Effect on test strains of H. pylori” value in the assay with Helicobacter pylori [1] is recorded as “None of the test strains of H. pylori were affected”. The “Change in viable cell number” value was -0.21 LOG CFU/mL in the assay with Helicobacter pylori [2] (setting [9]); 0.00 LOG CFU/mL with Helicobacter pylori [2] (Sustacal (Formulation I), 5 mM); 0.00 LOG CFU/mL in the assay with Helicobacter pylori [2] (setting [5]); 0.02 LOG CFU/mL with Helicobacter pylori [2] (setting [10]); 0.06 LOG CFU/mL in the assay with Helicobacter pylori [2] (setting [6]); -0.20 LOG CFU/mL in the assay on Helicobacter pylori [2] (setting [7]). Moreover, the “Change in viable cell number” value with Helicobacter pylori [2] (setting [8]) was -0.81 LOG CFU/mL. Moreover, the “Inhibition in nutritional compositions” value with Helicobacter pylori [2] is recorded as “not inhibitory”.

For the molecule `CCCCCCCCCC(=O)O` [Capric Acid, capric acid, reference compound], the “Effect on test strains of H. pylori” value in the assay on Helicobacter pylori [1] is given as “None of the test strains of H. pylori were affected”. Besides, the “Change in viable cell number” value with Helicobacter pylori [2] (setting [9]) is on record as -0.08 LOG CFU/mL; with Helicobacter pylori [2] (Sustacal (Formulation I), 5 mM) it was 0.00 LOG CFU/mL; in the assay on Helicobacter pylori [2] (setting [5]) it was 0.00 LOG CFU/mL; with Helicobacter pylori [2] (setting [10]) it was -0.09 LOG CFU/mL; in the assay on Helicobacter pylori [2] (setting [6]) it was 0.03 LOG CFU/mL; in the assay with Helicobacter pylori [2] (setting [7]) it was -0.03 LOG CFU/mL. Besides, the “Change in viable cell number” value in the assay with Helicobacter pylori [2] (setting [8]) is -0.33 LOG CFU/mL. In addition, the “Inhibition in nutritional compositions” value with Helicobacter pylori [2] was “not inhibitory”.
